{"source": "patent US10682371B2", "about": "“Small molecule conjugates specifically activated in tumor microenvironment for targeting and use thereof” (priority 2014, dated 2020)", "key": {"[1]": {"system": "Human breast cancer MDA-MB435 tumor tissue homogenate", "type": "biochemical", "details": "Paclitaxel release by HPLC", "outline": "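Compounds at 1 mg/ml incubated at 37° C. with 100 μg acidified (pH6.0) MDA-MB435 human breast tumor tissue homogenate, as a source of proteases for compound activation.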"}, "[2]": {"system": "Human chronic leukemia K562 tumor tissue homogenate", "type": "biochemical", "details": "Human chronic leukemia K562; 1 mg/ml, acidized homogenate pH6.0; Paclitaxel release by HPLC", "outline": "(§1)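 Activation efficiency by tissue proteases is the read-out. Each sample compound, at 1 mg/ml, was incubated with 100 μg of acid-treated homogenate at pH6.0 and 37° C.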"}, "[3]": {"system": "Human colon cancer HT-29 tumor tissue homogenate", "type": "biochemical", "details": "Human colon cancer HT-29; 1 mg/ml, acidized homogenate pH6.0; Paclitaxel release by HPLC", "outline": "as §1"}, "[4]": {"system": "Human liver cancer Hepg2 tumor tissue homogenate", "type": "biochemical", "details": "Human liver cancer Hepg2; 1 mg/ml, acidized homogenate pH6.0; Paclitaxel release by HPLC", "outline": "as §1"}, "[5]": {"system": "Human non-small cell lung cancer A549 tumor tissue homogenate", "type": "biochemical", "details": "Human non-small cell lung cancer A549; 1 mg/ml, acidized homogenate pH6.0; Paclitaxel release by HPLC", "outline": "as §1"}, "[6]": {"system": "Human ovarian cancer SK-OV-3 tumor tissue homogenate", "type": "biochemical", "details": "Human ovarian cancer SK-OV-3; 1 mg/ml, acidized homogenate pH6.0; Paclitaxel release by HPLC", "outline": "as §1"}, "[7]": {"system": "Human pancreatic cancer Panc-1 tumor tissue homogenate", "type": "biochemical", "details": "Human pancreatic cancer Panc-1; 1 mg/ml, acidized homogenate pH6.0; Paclitaxel release by HPLC", "outline": "as §1"}, "[8]": {"system": "Human prostate cancer PC-3 tumor tissue homogenate", "type": "biochemical", "details": "Human prostate cancer PC-3; 1 mg/ml, acidized homogenate pH6.0; Paclitaxel release by HPLC", "outline": "as §1"}, "[9]": {"system": "Human renal cancer OS-RC-2 tumor tissue homogenate", "type": "biochemical", "details": "Human renal cancer OS-RC-2; 1 mg/ml, acidized homogenate pH6.0; Paclitaxel release by HPLC", "outline": "as §1"}, "D121 lung tumor cells": {"system": "D121 lung tumor cells", "type": "in vivo, C57 mice", "outline": "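Endpoint is tumor inhibition rate from tumor size (mm^3) after weekly drug treatment for 4 weeks, begun once s.c. tumors from 10^6 live D121 cells reached 0.3-0.4 cm. Before challenge, C57 mice received three i.p. doses of 5×10^5 irradiated D121 cells, two weeks apart, or saline.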"}, "tumor CD8+ T cells": {"system": "tumor CD8+ T cells", "type": "in vivo, C57 mice", "details": "Table 27; CD8 positive cells in CD45 positive cells of tumor, flow cytometry; immunized C57 mice, D121", "outline": "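Tumour tissue homogenised and single cells filtered, washed, then stained 1 h at ambient temperature with CD45-PE and CD8-FITC antibodies. After washes in PBS with 1% FBS, flow cytometry gave the fraction of CD8⁺ cells among CD45⁺ leucocytes.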"}, "[10]": {"details": "Table 27, immunized C57 mice, D121 lung tumor, drugs weekly for 4 weeks, Day 18"}}}
{"compound": "COCCOCC(=O)NCCCC[C@H](NC(=O)COCCOC)C(=O)N[C@H](C)C(=O)N[C@H](C)C(=O)N[C@H](CC(N)=O)C(=O)Nc1ccc(COC(=O)OC(C(=O)OC2C[C@@]3(O)[C@@H](OC(=O)c4ccccc4)[C@H]4[C@](C)(C(=O)[C@H](OC(C)=O)C(=C2C)C3(C)C)[C@@H](O)CC2OC[C@]24OC(C)=O)[C@@H](NC(=O)c2ccccc2)c2ccccc2)cc1", "note": "(stereo partly drawn) [Compound A1]", "values": [{"measurement": "Activation ratio (%) in homogenates from different tumor tissues", "setting": "[1]; Human breast cancer MDA-MB435, 1 mg/ml, acidized homogenate pH6.0", "result": 95.6, "unit": "%"}, {"measurement": "activation efficiency (%)", "setting": "[1]; Table 24, acidized human breast cancer (MDA-MB435) tumor tissue homogenates pH6.0, 1 mg/ml", "result": 95.1, "unit": "%"}, {"measurement": "Activation ratio (%) in homogenates from different tumor tissues", "setting": "[2]", "result": 67.7, "unit": "%"}, {"measurement": "Activation ratio (%) in homogenates from different tumor tissues", "setting": "[3]", "result": 82.4, "unit": "%"}, {"measurement": "Activation ratio (%) in homogenates from different tumor tissues", "setting": "[4]", "result": 98.3, "unit": "%"}, {"measurement": "Activation ratio (%) in homogenates from different tumor tissues", "setting": "[5]", "result": 89.5, "unit": "%"}, {"measurement": "Activation ratio (%) in homogenates from different tumor tissues", "setting": "[6]", "result": 91.4, "unit": "%"}, {"measurement": "Activation ratio (%) in homogenates from different tumor tissues", "setting": "[7]", "result": 97.8, "unit": "%"}, {"measurement": "Activation ratio (%) in homogenates from different tumor tissues", "setting": "[8]", "result": 100.3, "unit": "%"}, {"measurement": "Activation ratio (%) in homogenates from different tumor tissues", "setting": "[9]", "result": 89.2, "unit": "%"}, {"measurement": "Size of tumor (mm^3) Day 18", "setting": "D121 lung tumor cells; [10]", "result": "261.36 ± 178.3", "unit": "mm^3"}, {"measurement": "inhibitory rate on tumor % Day 18", "setting": "D121 lung tumor cells; [10]", "result": 84.52, "unit": "%"}, {"measurement": "Effect together with PDL1-antibody in promoting immunization and treatment, in words", "setting": "D121 lung tumor cells; combination with PDL1-antibody", "result": "excellent synergistic effect"}, {"measurement": "Treatment effects on C57 mice, in words", "setting": "D121 lung tumor cells; compared to the control group and the other treatment groups", "result": "greatly improved"}, {"measurement": "CD8: CD45 (%)", "setting": "tumor CD8+ T cells", "result": 20.4, "unit": "%"}]}
